One assay concerns the target T1, ABC2 (Yarrowia lipolytica, UniProt Q6CBB8).
T1 construct: gene YALI0_C20265g; full-length, C-terminal 6xHis tag, pYES2 (GAL1) in S. cerevisiae BY4741; 165 kDa on western blot; plasma membrane
T1 sequence (Q6CBB8 1-1469): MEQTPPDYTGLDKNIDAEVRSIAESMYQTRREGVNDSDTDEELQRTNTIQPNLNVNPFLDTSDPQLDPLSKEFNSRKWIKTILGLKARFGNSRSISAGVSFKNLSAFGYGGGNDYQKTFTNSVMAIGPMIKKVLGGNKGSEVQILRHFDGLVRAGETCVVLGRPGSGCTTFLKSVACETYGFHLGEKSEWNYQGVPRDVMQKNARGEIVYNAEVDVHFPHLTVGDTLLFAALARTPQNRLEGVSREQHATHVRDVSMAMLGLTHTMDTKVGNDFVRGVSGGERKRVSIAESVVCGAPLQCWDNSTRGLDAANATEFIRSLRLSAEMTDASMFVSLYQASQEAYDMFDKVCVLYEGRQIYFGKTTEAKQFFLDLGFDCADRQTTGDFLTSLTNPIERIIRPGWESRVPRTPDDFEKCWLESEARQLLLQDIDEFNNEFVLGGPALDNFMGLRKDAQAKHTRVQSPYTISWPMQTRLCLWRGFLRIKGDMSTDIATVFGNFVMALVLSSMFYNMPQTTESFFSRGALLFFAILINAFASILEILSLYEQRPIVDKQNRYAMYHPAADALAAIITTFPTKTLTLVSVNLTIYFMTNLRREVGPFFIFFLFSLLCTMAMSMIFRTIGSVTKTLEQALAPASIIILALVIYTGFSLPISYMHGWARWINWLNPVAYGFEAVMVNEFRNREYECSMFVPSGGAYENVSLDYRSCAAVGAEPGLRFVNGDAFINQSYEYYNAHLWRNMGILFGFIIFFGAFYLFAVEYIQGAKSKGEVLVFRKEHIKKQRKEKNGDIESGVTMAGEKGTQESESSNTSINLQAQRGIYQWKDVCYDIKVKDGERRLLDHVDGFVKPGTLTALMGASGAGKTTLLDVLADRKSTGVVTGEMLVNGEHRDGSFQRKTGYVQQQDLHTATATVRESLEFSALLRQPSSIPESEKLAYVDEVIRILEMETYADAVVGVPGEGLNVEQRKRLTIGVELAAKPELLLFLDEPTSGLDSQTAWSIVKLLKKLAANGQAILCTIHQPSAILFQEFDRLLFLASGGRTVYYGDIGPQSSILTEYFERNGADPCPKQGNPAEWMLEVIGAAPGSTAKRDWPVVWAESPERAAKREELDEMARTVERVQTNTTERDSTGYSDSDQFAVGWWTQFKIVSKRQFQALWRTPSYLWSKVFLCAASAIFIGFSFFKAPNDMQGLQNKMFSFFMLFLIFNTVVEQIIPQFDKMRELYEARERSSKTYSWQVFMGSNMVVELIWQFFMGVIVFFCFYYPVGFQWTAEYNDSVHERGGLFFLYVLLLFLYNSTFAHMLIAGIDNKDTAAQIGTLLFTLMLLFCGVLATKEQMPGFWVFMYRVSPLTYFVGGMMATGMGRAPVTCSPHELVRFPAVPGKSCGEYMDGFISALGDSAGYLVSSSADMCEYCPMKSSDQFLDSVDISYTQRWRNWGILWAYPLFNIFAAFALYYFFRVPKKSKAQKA
Description: intracellular alkane level by GC, S. cerevisiae expressing transporter vs empty plasmid. It is filed as cell-based. The settings on record: 48 h, whole-cell efflux, indirect.

Another assay addresses T2, ABC3 (Yarrowia lipolytica, UniProt Q6CFY4).
T2 construct: gene YALI0_B02544g; full-length, C-terminal 6xHis tag, pYES2 (GAL1) in S. cerevisiae BY4741; 167 kDa on western blot; plasma membrane
T2 sequence (Q6CFY4 1-1485): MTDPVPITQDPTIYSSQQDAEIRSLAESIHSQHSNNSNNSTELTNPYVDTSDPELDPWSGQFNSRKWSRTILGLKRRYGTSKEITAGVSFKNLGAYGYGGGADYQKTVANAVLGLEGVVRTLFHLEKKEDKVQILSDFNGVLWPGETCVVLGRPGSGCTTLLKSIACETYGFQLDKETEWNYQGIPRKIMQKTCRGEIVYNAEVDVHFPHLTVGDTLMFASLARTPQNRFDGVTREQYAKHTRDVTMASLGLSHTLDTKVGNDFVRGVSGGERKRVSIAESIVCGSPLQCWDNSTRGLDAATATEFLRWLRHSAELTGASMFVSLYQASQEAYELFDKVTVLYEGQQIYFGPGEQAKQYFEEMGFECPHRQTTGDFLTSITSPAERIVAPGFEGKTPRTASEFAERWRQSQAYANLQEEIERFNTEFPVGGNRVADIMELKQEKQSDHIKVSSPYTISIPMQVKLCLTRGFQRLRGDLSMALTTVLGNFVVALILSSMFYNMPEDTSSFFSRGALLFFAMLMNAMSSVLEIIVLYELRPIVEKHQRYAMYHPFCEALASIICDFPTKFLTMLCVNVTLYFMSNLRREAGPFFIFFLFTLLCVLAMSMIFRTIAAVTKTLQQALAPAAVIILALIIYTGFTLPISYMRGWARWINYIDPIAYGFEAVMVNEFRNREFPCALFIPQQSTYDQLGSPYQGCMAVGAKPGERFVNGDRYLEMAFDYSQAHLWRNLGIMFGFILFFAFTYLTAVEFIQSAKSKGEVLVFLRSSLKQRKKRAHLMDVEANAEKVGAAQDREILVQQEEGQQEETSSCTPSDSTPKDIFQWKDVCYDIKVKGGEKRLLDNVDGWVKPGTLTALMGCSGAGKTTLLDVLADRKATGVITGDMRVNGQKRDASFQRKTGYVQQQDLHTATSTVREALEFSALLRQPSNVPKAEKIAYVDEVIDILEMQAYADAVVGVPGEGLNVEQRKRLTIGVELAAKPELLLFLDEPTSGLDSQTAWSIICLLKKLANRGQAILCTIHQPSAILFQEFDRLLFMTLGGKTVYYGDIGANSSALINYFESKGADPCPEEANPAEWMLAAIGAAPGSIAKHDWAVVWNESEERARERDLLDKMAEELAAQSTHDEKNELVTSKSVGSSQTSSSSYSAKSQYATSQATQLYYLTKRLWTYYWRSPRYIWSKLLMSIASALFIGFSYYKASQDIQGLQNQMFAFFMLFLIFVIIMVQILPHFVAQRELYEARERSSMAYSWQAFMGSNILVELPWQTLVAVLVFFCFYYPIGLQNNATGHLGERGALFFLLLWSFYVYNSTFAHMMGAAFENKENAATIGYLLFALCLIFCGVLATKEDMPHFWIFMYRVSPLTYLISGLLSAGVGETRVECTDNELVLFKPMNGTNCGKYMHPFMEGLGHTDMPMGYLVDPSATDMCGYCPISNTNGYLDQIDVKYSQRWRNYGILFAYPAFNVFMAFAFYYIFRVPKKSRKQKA
Described as above. The note with it: 48 h, whole-cell efflux, indirect. It is filed as cell-based.

In the case of `CCCCCCCCCC` [decane], the “fold lower intracellular level” value at ABC2 (0.5% (vol/vol) decane) and on ABC3 (0.5% (vol/vol) decane) was ~ 5 fold throughout.
Consider `CCCCCCCCCCC` [undecane], for which the “fold lower intracellular level” value at ABC2 (20% (vol/vol) undecane) and on ABC3 (20% (vol/vol) undecane) was ~ 30 fold throughout.

The values are drawn from article PMC3598725, “Transporter engineering for improved tolerance against alkane biofuels in Saccharomyces cerevisiae” (Biotechnology for Biofuels, 2013).
